Data as given in publication PMC4501720 (PLoS ONE, 2015).

The substances below were run on whole blood cells of group 3 pigs vaccinated with BCG-pAg85A.
Type: cell-based, pigs (Sus scrofa domestica)

Substance | IFN-γ levels, BCG / pAg85A animal number 1 | IFN-γ levels, BCG / pAg85A animal number 2 | IFN-γ levels, BCG / pAg85A animal number 3 | IFN-γ levels, BCG / pAg85A animal number 4 | IFN-γ levels, BCG / pAg85A animal number 5 | IFN-γ levels, BCG / pAg85A animal number 6
71–90: synthetic overlapping peptide of mature Ag85A, aa 71–90 (PVGGQSSFYSDWYQPACGKA; UniProt P9WQP3 114-133, looked up, fragment) | 217 pg/mL | <5 pg/mL | <5 pg/mL | <5 pg/mL | 289 pg/mL | <5 pg/mL
91–108: 18-mer peptide spanning the sequence of Ag85B aa 91–108, used instead of Ag85A 91–110 (GCQTYKWETFLTSELPQW; UniProt P9WQP1 131-148, looked up, fragment) | <5 pg/mL | 2,332 pg/mL | 2,377 pg/mL | 308 pg/mL | 748 pg/mL | <5 pg/mL
1–20: synthetic overlapping peptide of mature Ag85A, aa 1–20 (FSRPGLPVEYLQVPSPSMGR; UniProt P9WQP3 44-63, looked up, fragment) | <5 pg/mL | 305 pg/mL | <5 pg/mL | <5 pg/mL | 84 pg/mL | 13,875 pg/mL
231–250: synthetic overlapping peptide of mature Ag85A, aa 231–250 (GFVRTSNIKFQDAYNAGGGH; UniProt P9WQP3 274-293, looked up, fragment) | 11,639 pg/mL | 13,693 pg/mL | 423 pg/mL | <5 pg/mL | 1,018 pg/mL | 665 pg/mL
275–294: synthetic overlapping peptide of mature Ag85A, aa 275–294 (KPDLQRALGATPNTGPAPQG; UniProt P9WQP3 318-337, looked up, fragment) | 57 pg/mL | <5 pg/mL | <5 pg/mL | <5 pg/mL | 114 pg/mL | 77 pg/mL
21–40: synthetic overlapping peptide of mature Ag85A, aa 21–40 (DIKVQFQSGGANSPALYLLD; UniProt P9WQP3 64-83, looked up, fragment) | <5 pg/mL | 681 pg/mL | <5 pg/mL | 128 pg/mL | 142 pg/mL | <5 pg/mL
251–270: synthetic overlapping peptide of mature Ag85A, aa 251–270 (NGVFDFPDSGTHSWEYWGAQ; UniProt P9WQP3 294-313, looked up, fragment) | 410 pg/mL | 317 pg/mL | <5 pg/mL | 11 pg/mL | 161 pg/mL | 163 pg/mL
191–210: synthetic overlapping peptide of mature Ag85A, aa 191–210 (NDPLLNVGKLIANNTRVWVY; UniProt P9WQP3 234-253, looked up, fragment) | 266 pg/mL | <5 pg/mL | 156 pg/mL | 38 pg/mL | 560 pg/mL | <5 pg/mL
141–160: synthetic overlapping peptide of mature Ag85A, aa 141–160 (QQFVYAGAMSGLLDPSQAMG; UniProt P9WQP3 184-203, looked up, fragment) | 9,718 pg/mL | 232 pg/mL | 1,330 pg/mL | 894 pg/mL | 3,006 pg/mL | 837 pg/mL
181–200: synthetic overlapping peptide of mature Ag85A, aa 181–200 (GPKEDPAWQRNDPLLNVGKL; UniProt P9WQP3 224-243, looked up, fragment) | 33 pg/mL | <5 pg/mL | 8 pg/mL | 17 pg/mL | <5 pg/mL | <5 pg/mL
121–140: synthetic overlapping peptide of mature Ag85A, aa 121–140 (AVVGLSMAASSALTLAIYHP; UniProt P9WQP3 164-183, looked up, fragment) | 16,699 pg/mL | 2,367 pg/mL | 306 pg/mL | <5 pg/mL | 1,023 pg/mL | <5 pg/mL
Ag85A tub: recombinant E. coli derived histidine-tagged Ag85A of M. tuberculosis | 145,331 pg/mL | 50,084 pg/mL | 68,850 pg/mL | 3,712 pg/mL | 27,544 pg/mL | 14,506 pg/mL
11–30: synthetic overlapping peptide of mature Ag85A, aa 11–30 (LQVPSPSMGRDIKVQFQSGG; UniProt P9WQP3 54-73, looked up, fragment) | <5 pg/mL | 1,115 pg/mL | <5 pg/mL | <5 pg/mL | 80 pg/mL | <5 pg/mL
81–100: synthetic overlapping peptide of mature Ag85A, aa 81–100 (DWYQPACGKAGCQTYKWETF; UniProt P9WQP3 124-143, looked up, fragment) | 1,900 pg/mL | 56 pg/mL | 2,968 pg/mL | 170 pg/mL | 1,547 pg/mL | <5 pg/mL
261–280: synthetic overlapping peptide of mature Ag85A, aa 261–280 (THSWEYWGAQLNAMKPDLQR; UniProt P9WQP3 304-323, looked up, fragment) | 31 pg/mL | <5 pg/mL | <5 pg/mL | 157 pg/mL | 728 pg/mL | 1,240 pg/mL
161–180: synthetic overlapping peptide of mature Ag85A, aa 161–180 (PTLIGLAMGDAGGYKASDMW; UniProt P9WQP3 204-223, looked up, fragment) | 1,501 pg/mL | <5 pg/mL | 556 pg/mL | 37 pg/mL | 463 pg/mL | <5 pg/mL
201–220: synthetic overlapping peptide of mature Ag85A, aa 201–220 (IANNTRVWVYCGNGKPSDLG; UniProt P9WQP3 244-263, looked up, fragment) | 21 pg/mL | <5 pg/mL | 1,315 pg/mL | <5 pg/mL | <5 pg/mL | 197 pg/mL
101–120: synthetic overlapping peptide of mature Ag85A, aa 101–120 (LTSELPGWLQANRHVKPTGS; UniProt P9WQP3 144-163, looked up, fragment) | 150 pg/mL | 1,646 pg/mL | 1,177 pg/mL | <5 pg/mL | 319 pg/mL | <5 pg/mL
61–80: synthetic overlapping peptide of mature Ag85A, aa 61–80 (YDQSGLSVVMPVGGQSSFYS; UniProt P9WQP3 104-123, looked up, fragment) | 8,179 pg/mL | 354 pg/mL | 579 pg/mL | 75 pg/mL | 3,611 pg/mL | 444 pg/mL
241–260: synthetic overlapping peptide of mature Ag85A, aa 241–260 (QDAYNAGGGHNGVFDFPDSG; UniProt P9WQP3 284-303, looked up, fragment) | 40 pg/mL | <5 pg/mL | <5 pg/mL | <5 pg/mL | <5 pg/mL | 66 pg/mL
171–190: synthetic overlapping peptide of mature Ag85A, aa 171–190 (AGGYKASDMWGPKEDPAWQR; UniProt P9WQP3 214-233, looked up, fragment) | 328 pg/mL | <5 pg/mL | 1,066 pg/mL | 22 pg/mL | 170 pg/mL | <5 pg/mL
